Results: US20220226586A1, “An Inhaler For Electronically Supervised Parenteral Administration of a Pharmaceutical Composition” (Celon Pharma S.A., priority 2019, published 2022)
Where a name gives a salt, the structure may show the parent alone.

Tests used:
[1] = nebulized saline solution, inhalation; cited from earlier work
NMDA receptor = details: cited from earlier work
[2] = cited from earlier work
[3] = cited from earlier work; remark: listed apart in the source
[4] = tested on: treatment-resistant depression; details: cited from earlier work
[5] = Pharmacokinetics of inhaled esketamine dry powder in healthy volunteers; assay type: in vivo; details: overall conclusion
Protocol: Esketamine hydrochloride dry powder formulation of Example 2 was administered to healthy volunteers pulmonary, i.e. directly to the lungs using dry powder inhaler (DPI) (by self-administration).
One puff of dry powder formulation contained 4.6 mg of esketamine hydrochloride, corresponding to 4 mg of esketamine free base and excipients 18.22 mg of lactose monohydrate and 0.18 mg of magnesium stearate.
A single dose was an inhalation events consisting of 1 to 6 puffs, i.e. 4 to 24 mg of esketamine free base nominal dose.
In part A of the study, designed as a one-centre single ascending dose, the medicine was delivered in a single dose once daily (up to 6 consecutive puffs) to 18 healthy volunteer subjects. Subjects were divided into 6 cohorts, cohorts receiving 1, 2, 3, 4, 5 or 6 puffs in a single doses (inhalation events), respectively.
Collection of blood samples for determination of esketamine and esnorketamine concentration and calculation of pharmacokinetic parameters was performed for up 24 hours following the start of the test.
The aim of the study was to determine the amount of puffs needed to obtain plasma concentration similar to that sufficient to achieve antidepressant effect as for 0.20 mg/kg 40 minutes intravenous infusion. It can be predicted on the basis of literature data that this corresponds to concentration at 40 min of infusion between about 60 to 100 ng/ml. […]

[6] = after intravenous infusion of racemic ketamine
[7] = after oral administration of ketamine

In the case of `CN[C@]1(c2ccccc2Cl)CCCCC1=O` [esketamine hydrochloride], the inhaled bioavailability [1] is listed as “reduced”.

For `NC1(c2ccccc2Cl)CCCCC1=O` (stereo not drawn) [norketamine], the “activity on NMDA receptor relative to ketamine” value (NMDA receptor) is given as “many times less active than ketamine”, the “maximum concentration as % of ketamine concentration” value [2, 6] is given as 10-20% and the “percentage of AUC norketamine to ketamine” value [2, 6] is given as 20-40%. For the same compound, the “AUC relative to ketamine” value [3, 7] was “exceeding 1000%” and the “level as % of ketamine level” value [3, 7] was 500-1000%.

In the case of `CNC1(c2ccccc2Cl)CCCCC1=O` (racemic) [ketamine], the “fraction of patients with treatment-resistant depression responsive to treatment” value ([4]; human, in vivo) is listed as “about 2/3”, the “half-period of concentration fall” value ([2]; after intravenous infusion 0.5 mg/kg for 40 minutes) is listed as “below 2 hours” and the “systemic concentration of parent drug” value ([2]; intravenous infusion 0.5 mg/kg for 40 minutes, maintained for about 40 minutes) is listed as “about 200 ng/ml”. The bioavailability ([3]; orally administered) was 16-20%.

For `CN[C@]1(c2ccccc2Cl)CCCCC1=O` [esketamine], the “antidepressant effect in TRD patients” value ([4]; 40-minute i.v. infusion of 0.20 mg/kg or 0.40 mg/kg (Singh et al.)) is listed as “rapid onset of robust antidepressant effects” and the “plasma concentration profile after pulmonary administration” value [5] is listed as “quite smooth, consistent with a target profile and safe for chronic administration”.
